This passage reports Activity and IC50 results from ChEMBL document CHEMBL3217526, “Bioguided discovery and pharmacophore modeling of the mycotoxic indole diterpene alkaloids penitrems as breast cancer proliferation, migration, and invasion inhibitors” (Medchemcomm, 2013).

Series [1] deals with Caenorhabditis elegans. The series is described as follows: Toxicity in L1 stage Caenorhabditis elegans N2 assessed as viability and reproduction at 50 uM. Format: organism-based. As to conditions: in vivo.
Series [2] relates to Caenorhabditis elegans. Nature of the series: Toxicity in L1 stage Caenorhabditis elegans N2 assessed as viability and reproduction at 10 uM. Format: organism-based. As to conditions: in vivo.
Series [3] relates to MDA-MB-231. The series is described as follows: Antimigratory activity in human MDA-MB-231 cells after 24 hrs by wound healing assay. Format: functional, cell-based. As to conditions: MDA-MB-231, 24 h.
Series [4] concerns MDA-MB-231. Nature of the series: Antiproliferative activity against human MDA-MB-231 cells after 72 hrs by MTT assay. Format: functional, cell-based. As to conditions: MDA-MB-231, 72 h.
The test system of the next series is MCF7. The series is described as follows: Antiproliferative activity against human MCF7 cells after 72 hrs by MTT assay. Format: functional, cell-based. Conditions: MCF7, 72 h.
Series [5] relates to Caenorhabditis elegans. Nature of the series: In vivo inhibition of BK channel in L1 stage Caenorhabditis elegans N2 assessed as increase in reversals at 1 uM. Format: organism-based.

For the molecule `C=C1Cc2c(Br)cc3[nH]c4c5c3c2[C@H]2[C@@H]1C[C@@H]2C(C)(C)O[C@H]5[C@@H]1CC[C@@]2(O)[C@@]35O[C@@H]3[C@@H](O)[C@@H](C(=C)C)O[C@H]5CC[C@]2(C)[C@]41C`, the Activity result in the series with Caenorhabditis elegans [1] and with Caenorhabditis elegans [2] was “Non-toxic” throughout. Besides, the results for the IC50 in the series with MDA-MB-231 [3], in the series with MDA-MB-231 [4] and in the series with MCF7 were 30.3 µM, 18.8 µM and 19.3 µM, respectively.
Turning to `C=C(C)[C@H]1O[C@H]2CC[C@@]3(C)[C@@](O)(CC[C@H]4[C@@H]5OC(C)(C)[C@H]6C[C@@H]7C(=C)Cc8c(Br)cc9[nH]c(c5c9c8[C@@]76O)[C@@]43C)[C@]23O[C@@H]3[C@H]1O`, the Activity entry is “Non-toxic” in the series on Caenorhabditis elegans [1], “Non-toxic” with Caenorhabditis elegans [2] and “Toxic” in the series with Caenorhabditis elegans [5]. The IC50 worked out at 9.6 µM in the series with MDA-MB-231 [3], 8.5 µM in the series with MDA-MB-231 [4] and 16.7 µM with MCF7.
With `CC(C)=CCC[C@]1(C)[C@@H](O)CC[C@@]2(C)[C@H]1CC[C@H]1Cc3c([nH]c4ccccc34)[C@@]12C` [EMINDOLE SB], the Activity entry in the series with Caenorhabditis elegans [1], in the series on Caenorhabditis elegans [2] and in the series with Caenorhabditis elegans [5] was “Non-toxic” throughout. Further, the figures for the IC50 with MDA-MB-231 [3], in the series with MDA-MB-231 [4] and in the series on MCF7 were 19 µM, 21.3 µM and 10.1 µM, respectively.
Consider `CC(C)(O)[C@@H]1CC[C@]2(C)[C@H](CC[C@@]3(C)[C@H]2CC[C@H]2Cc4c([nH]c5ccccc45)[C@@]23C)O1` [PASPALINE], for which the Activity entry with Caenorhabditis elegans [1] and in the series on Caenorhabditis elegans [2] was “Non-toxic” in each case. Besides, the concentration for half-maximal inhibition (IC50) was determined as 7.6 µM in the series on MDA-MB-231 [3], 12.4 µM in the series on MDA-MB-231 [4] and 12.8 µM in the series on MCF7.
